In patent publication US20100076089A1, “ANTIMICROBIAL GEL FORMULATIONS” (NovaBay Pharmaceuticals, Inc., priority 2008, published 2010):
Several values for one entry are separate records, joined by “and”; a condition that tells them apart may be missing. Equal entries are not always repeated.

Experiments:
[1] = system: S. aureus; test: Time-kill assay of antimicrobial gel formulations; assay type: cell-based; conditions: final inoculum 1.5×10^7 CFU/mL, room temperature
Protocol: Isolated S. aureus colonies were picked into 5 mL Tryptic Soy Broth (TSB) and grown for 4-6 hours at 37° C. Stock titers were determined by drop plate method. A working stock of S. aureus was prepared by dilution of the culture to a final inoculum of 1.5×10^8 colony forming units (CFU) per mL in sterile pH 4.0 saline. 900 μL of each tested formulation was placed in sterile glass tubes. A 0.1 mL aliquot of S. aureus suspension containing 1.5×10^8 CFU/mL was inoculated into the test sample container to give a final inoculum of 1.5×10^7 CFU/mL. The inoculated formulation was immediately mixed for 3 seconds following inoculation using a vortex and incubated at room temperature. A plate count was performed on the inoculated samples after 0, 5, 15, 30 and 60 minutes following inoculation as follows: • 0.1 mL of the inoculated antimicrobial test agent was placed into 0.9 mL of the D/E neutralizing broth • A 0.1 mL aliquot of each sample in D/E broth was drop plated on appropriately labeled agar dishes
All plates were incubated at 37° C. for 24 hours for bacterial growth assessment. At the conclusion of the incubation period the number of colonies present on the plates was counted. The total number of survivors at each time point was calculated by multiplying the CFU count obtained by the dilution factor.

[2] = system: S. aureus 29213; test: Radial diffusion assay of antimicrobial gel formulations; assay type: cell-based; conditions: 100 μl of formulation
Protocol: Vials containing 0.6% NVC-422 (Drug Control), liquid, pH=5.0; 3% Polyox® WSR 205 (Placebo) Liquid, R.T. pH=5.0; 0.6% NVC-422/3% Polyox® WSR 205, Liquid, R.T., pH=5.0; 0.75% AA-1 (Placebo), 0.6% NVC-422/0.75% AA-1 and 0.23% AA-1 (alternate placebo) were prepared. The first three test articles appeared as clear liquids, while the last three appeared as gels. The samples were tested in the radial diffusion assay against S. aureus 29213. 100 μl of each formulation were tested in duplicate on two plates each (n=4 total).

[3] = system: S. aureus 6538 biofilm; test: Calgary Biofilm Device (MBEC) assay, absorbance reading; assay type: cell-based; conditions: 24 hr biofilm, treatment 60 minutes, overnight regrowth in TSB; values greater than 0.1 indicate incomplete biofilm eradication
Protocol: S. aureus 6538 biofilm was grown in MBEC plates for 24 hr at 35° C. for 24 hr in TSB prior to treatment using the method describe above. The MBEC lid containing pegs coated with biofilm was first rinsed in a plate containing […] of PBS in each well for 1 minute, prior to treatment with a plate containing formulations for 60 minutes total. The lid was neutralized in a plate containing 200 μl D/E Neutralization broth in each well for 1 minute before transferring the lid into a plate containing 150 μl TSB in each well. Plate was incubated overnight at 35° C. Absorbance was read at 650 nm the following day.

[4] = Amount of N,N-dichloro-2,2-dimethyltaurine an AA-1 formulation can hold; assay type: physicochemical
Text: The formulations may be made by mixing the N-halogenated or N,N-dihalogenated amine compound with the polymer using water. Water/oil emulsions, hydrating agents, wetting agents, surfactants, and the like may also be used. Concentrations of N-halogenated or N,N-dihalogenated amine compound may range from about 0.01% to about 5.0% (by weight). Concentrations of polymer may be from about 0.01% to about 10% (by weight) in water. For example, in certain implementations, the concentration of N-halogenated or N,N-dihalogenated compounds may range from about 0.1% to about 2.0% (by weight). Higher concentrations of polymer may be required to formulate higher concentrations of the N-halogenated or N,N-dihalogenated amine compound. For example, a 1% AA-1 formulation can hold up to about 2% N,N-dichloro-2,2-dimethyltaurine, whereas a 2% AA-1 formulation can hold up to about 3.5% of the same compound. These ratios may differ as different polymers and N-halogenated or N,N-dihalogenated amine compound are combined in a given formulation.

CC(C)(CS(=O)(=O)O)N(Cl)Cl [0.3% NVC-422 alone, N,N-dichloro-2,2-dimethyltaurine]
time to complete kill [1]: 1 h

CC(C)(CS(=O)(=O)O)N(Cl)Cl [0.6% NVC-422, N,N-dichloro-2,2-dimethyltaurine]
Clearing zone diameters, Sample 1 ([2]; pH 5.0): 15 mm
Clearing zone diameters, Sample 2 ([2]; pH 5.0): 16 mm
Clearing zone diameters, Sample 3 ([2]; pH 5.0): 16 mm
Clearing zone diameters, Sample 4 ([2]; pH 5.0): 14 mm
Clearing zone diameters, Average +/− SD ([2]; pH 5.0, n=4, pH 5): 15.3 mm and 15.3 +/− 1.0 mm
Ave. Abs at 650 nm [3]: 0.48
time to complete kill ([1]; listed as 0.6% NVC-422 alone): 0.25 h

CC(C)(CS(=O)(=O)O)N(Cl)Cl [NVC-422, N,N-dichloro-2,2-dimethyltaurine]
amount of compound the formulation can hold ([4]; 1% AA-1 formulation): up to 2%
amount of compound the formulation can hold ([4]; 2% AA-1 formulation): up to 3.5%
